Data: US4007165A (priority 1974, dated 1977)

Experiments:
[1] = for gas/nitrogen evolution or decomposition: room temperature or on melting; for temperature at which it begins to evolve nitrogen: onset
[2] = Curing of unsaturated polyester-styrene resin
Experimental: An unsaturated polyester resin was made by reacting maleic anhydride (1.0 mole), phthalic anhydride (1.0 mole), and propylene glycol (2.2 moles) until an acid number of 45-50 was obtained. To this was added hydroquinone at a 0.013% concentration. Seven parts of this unsaturated polyester was diluted with 3 parts of monomeric styrene to obtain a homogeneous blend having a viscosity of 13.08 poise and a specific gravity of 1.14.
To 20 grams of this blend was added 0.128 gram of alpha-(tert.-butylazo)isobutyronitrile and the resultant composition placed in a constant temperature bath at 212° F. (100° C.). […] At 180° F. (82.2° C.), a peak exotherm of 381° F. (193.9° C.) was obtained in 13.3 minutes. The resultant cured materials were very hard.
The procedure of Example III was used at 212° F. (100° C.) and 240° F. (115.6° C.) where peak exotherms of 414° F. (212.2° C.) and 440° F. (226.7° C.) were obtained after 10.0 and 5.3 minutes respectively using 0.2 gram of the 1-tert.-butylazo-1-cyanocyclohexane. The resultant cured resins were very hard.
The curing procedure and resin are described in Example III.

[3] = Polymerization of styrene in sealed tube at 70° C; conditions: for dry polymer weight: 10.0 grams styrene
Experimental: An 18 × 150 mm pyrex test tube was filled with 10.0 grams of distilled styrene monomer and 0.121 grams (8.4 × 10^^-4 moles) of 2-t-butylazo-2-hydroxypropane. The test tube was flushed out with nitrogen and placed in a constant temperature bath thermostatted at 70° C. After 4.0 hours at 70° C, the tube was removed and quickly chilled to -20° F to prevent post polymerization. The sealed tube was then broken and the polymer dissolved in 1000 ml of methanol to precipitate the polystyrene. The polymer was separated by filtration and dried in an oven at 50°-55° C. The dry polymer weighed 3.4 grams (34% conversion). The rate of conversion of monomer to polymer was 8.5% per hour.
An 18 × 150 mm pyrex test tube was filled with 10.0 grams of distilled styrene monomer and 0.134 grams (8.5 × 10^^-4 moles) of 2-t-butylazo-2-hydroxybutane from Example V. The test tube was flushed out with nitrogen and placed in a constant temperature thermostatted bath at 70° C. After 6.0 hours at 70° C, the tube was removed and quickly chilled to -20° F to prevent post polymerization. The sealed tube was then broken and the polymer dissolved in 1000 ml of methanol to precipitate the polystyrene. The polymer was separated by filtration and dried in an oven at 50°-55° C. The dry polymer weighed 4.8 grams (48% conversion). The rate of conversion of monomer to polymer was 8.0% per hour.

[4] = Oxidation of iodide ion to free iodine
[5] = Thermal decomposition half-life; assay type: physicochemical; conditions: gas evolution technique, trichlorobenzene solvent
Experimental: It produces 179 cc. of gas per gram at 110° C. The following half-life data have been determined:
The following half-life data have been determined by gas evolution technique using trichlorobenzene as the solvent: […]

[6] = 240° F. (115.6° C.), 1.0 weight per cent
[7] = 180° F. (82.2° C.), loading not given
[8] = 212° F. (100° C.), loading not given
[9] = 265° F. (129.4° C.), 1.0 weight per cent
[10] = 212° F. (100° C.), 1.0 weight per cent
[11] = 180° F. (82.2° C.), 1.0 weight per cent

With CC(C)(C)N=NC1(C(N)=O)CCCCC1 [XXIV, 1-tert. butylazo-1-carbamylcyclohexane] the “temperature at which it evolves nitrogen” value [1] was “above 120 °C”, the peak exotherm [2, 6] was 444 ° F and the “time to peak exotherm” value [2, 6] was 6.8 min.

With CC(C)(C)N=NC(C)(C)O [LXXII, 2-t-Butylazo-2-hydroxypropane] the “rate of conversion of monomer to polymer” value ([3]; 4.0 hours) was 8.5 % per hour, the conversion ([3]; 4.0 hours, 8.4 × 10^^-4 moles in 10.0 grams styrene) was 34% and the dry polymer weight ([3]; 4.0 hours) was 3.4 grams.

For CC(C)CC(C)(N=NC(C)(C)C)OOC(C)(C)CCC(C)(C)OOC(C)(CC(C)C)N=NC(C)(C)C (centres unmarked) [LXV, 2,2,5,8,8,11,11,14,17,17-decamethyl-5,14-diisobutyl-Δ^3,15-3,4,15,16-tetraaza-6,7,12,13-tetraoxaoctadecadiene], the “temperature at which it evolves nitrogen” value [1] was 30 °C.

For CC(C)CC(C)(N=NC(C)(C)C)OOC(C)(CC(C)C)N=NC(C)(C)C (centres unmarked) [LVIII, Di[1-(t-butylazo)-1,3-dimethylbutyl] Peroxide], the “gas/nitrogen evolution or decomposition” value [1] was “began to gas rapidly upon reaching room temperature”.

With CC(C)(C)N=NC(C)(C#N)C1CC1 (stereo not drawn) [Example XII, Alpha-tert-butylazo-alpha-cyclopropylpropionitrile] the “temperature at which it begins to evolve nitrogen” value (“temperature at which it begins” for short) [1] was 75 °C, the “hardness of cured resin” value [2] was “very hard” and the peak exotherm [2, 7] was 403 ° F. The “time to peak exotherm” value [2, 7] was 3.3 min, the peak exotherm [2, 8] was 420 ° F and the “time to peak exotherm” value [2, 8] was 2.1 min.

In the case of CCC(C)(O)N=NC(C)(C)C (centres unmarked) [2-t-butylazo-2-hydroxybutane], the “rate of conversion of monomer to polymer” value ([3]; 6.0 hours) is reported as 8.0 % per hour, the conversion ([3]; 6.0 hours, 8.5 × 10^^-4 moles in 10.0 grams styrene) is reported as 48% and the dry polymer weight ([3]; 6.0 hours) is reported as 4.8 grams.

In the case of CC(C)OC(=O)N=NC(C)(C)c1ccccc1 [Example XVIII B, Isopropyl tert.-cumylazocarboxylate], the “temperature at which it evolves nitrogen” value [1] is reported as 80 °C.

In the case of CC(C)CC(C)(N=NC(C)(C)C)N=[N+]=[N-] (centres unmarked) [XLII, 2-t-butylazo-2-azido-4-methylpentane], the “Barcol Hardness” value ([2]; bath 100° C.) is reported as 40, the “Minutes to Peak Exotherm” value ([2]; bath 100° C.) is reported as 5.3 min and the “peak exotherm” value ([2]; bath 100° C.) is reported as 418 ° F.

For COC(C)(N=NC(C)(C)C)c1ccccc1 (centres unmarked) [XXXIX, 1-t-butylazo-1-methoxy-1-phenylethane], the “Barcol Hardness” value ([2]; bath 82° C.) was 40, the “Minutes to Peak Exotherm” value ([2]; bath 82° C.) was 6.6 min and the “peak exotherm” value ([2]; bath 82° C.) was 371 ° F.

In the case of CC(C)CC(C)(N=NC(C)(C)C)SC#N (centres unmarked) [LI, 2-t-Butylazo-2-thiocyanato-4-methylpentane], the “Barcol Hardness” value ([2]; bath 115° C.) is reported as 45, the “Minutes to Peak Exotherm” value ([2]; bath 115° C.) is reported as 3.4 min and the “peak exotherm” value ([2]; bath 115° C.) is reported as 438 ° F.

For CNC(=O)N=NC(C)(C)C [XIV, tert.-butylazo-N-methylformamide], the “hardness of cured resin” value [2] was “very hard”, the peak exotherm [2, 9] was 428 ° F and the “time to peak exotherm” value [2, 9] was 17.1 min.

In the case of CN(C)C(=O)N=NC(C)(C)C [XV, tert.-butylazo-N,N-dimethylformamide], the “oxidizing of iodide ion” value [4] is reported as “oxidized iodide ion to free iodine”.

With CC(C)(C)N=NC(C)(C)C(N)=O [Example XXV, 2-t-butylazo-2-carbamylpropane] the “temperature at which it evolves nitrogen” value [1] was “above 120 °C”, the peak exotherm [2, 6] was 442 ° F and the “time to peak exotherm” value [2, 6] was 5.7 min.

With CC(C)(C)N=NC(N)=O [Example XIII, tert.-butylazoformamide] the “t 1/2” value ([5]; 110° C) was 5.73 h, the “t 1/2” value ([5]; 120° C) was 3.00 h and the “t 1/2” value ([5]; 130° C) was 0.87 h. For the same compound, the “t 1/2” value ([5]; 150° C) was 0.14 h, the “hardness of cured resin” value [2] was “very hard” and the peak exotherm [2, 10] was 407 ° F. The “time to peak exotherm” value [2, 10] was 7.1 min, the peak exotherm [2, 6] was 430 ° F and the “time to peak exotherm” value [2, 6] was 5.9 min. The peak exotherm [2, 9] was 438 ° F and the “time to peak exotherm” value [2, 9] was 4.5 min.

In the case of COC(C)(CC(C)C)N=NC(C)(C)C (centres unmarked) [XXXVI, 2-t-butylazo-2-methoxy-4-methylpentane], the “Barcol Hardness” value ([2]; bath 115° C.) is reported as 40, the “Minutes to Peak Exotherm” value ([2]; bath 115° C.) is reported as 7.2 min and the “peak exotherm” value ([2]; bath 115° C.) is reported as 400 ° F.

For CC(C)(C)N=NC(=O)c1ccccc1 [Example XX, Benzoyl tert.-butyldiimide], the “temperature at which it evolves nitrogen” value [1] was 25 °C, the “hardness of cured resin” value [2] was “hard” and the peak exotherm [2, 11] was 233 ° F. For the same compound, the “time to peak exotherm” value [2, 11] was 10.0 min.

For CC(C)(C#N)N=NC(C)(C)c1ccccc1 [Example XI, Alpha-(tert.-cumylazo)isobutyronitrile], the “temperature at which it begins” value [1] was 55 °C, the “hardness of cured resin” value [2] was “very hard” and the peak exotherm [2, 11] was 378 ° F. For the same compound, the “time to peak exotherm” value [2, 11] was 1.3 min.

For CC(C)(C)N=NC(C)(C#N)C(C)(C)C (centres unmarked) [Example IX, 2-tert.-butylazo-2-cyano-3,3-dimethylbutane], the “temperature at which it begins” value [1] was 95 °C, the “hardness of cured resin” value [2] was “very hard” and the peak exotherm [2, 7] was 388 ° F. The “time to peak exotherm” value [2, 7] was 10.4 min, the peak exotherm [2, 8] was 430 ° F and the “time to peak exotherm” value [2, 8] was 4.9 min.

With CC(C)CC(C)(N=NC(C)(C)C)NNc1ccccc1 (centres unmarked) [LXVIII, 2-t-Butylazo-2-phenylhydrazo-4-methylpentane] the “gas/nitrogen evolution or decomposition” value [1] was “decomposes rapidly at room temperature”.

For CCCNC(C)(CC(C)C)N=NC(C)(C)C (centres unmarked) [Example LX, 2-t-Butylazo-2-(propylamino)-4-methylpentane], the “gas/nitrogen evolution or decomposition” value [1] was “slowly evolves gas at room temperature”.

For C=C(C)N=NC(C)(C)C [XXII, 2(-tert.-butylazo)propene], the “gas/nitrogen evolution or decomposition” value [1] was “evolves nitrogen at room temperature”.

For CC(C)CC(C)(N=NC(C)(C)C)OC(C)(C)C (centres unmarked) [LIV, 2-t-Butylazo-2-t-butoxy-4-methylpentane], the “Barcol Hardness” value ([2]; bath 115° C.) was 20, the “Minutes to Peak Exotherm” value ([2]; bath 115° C.) was 2.8 min and the “peak exotherm” value ([2]; bath 115° C.) was 358 ° F.

For CC(C)CC(C#N)(CC(C)C)N=NC(C)(C)C [Example VII, 4-tert.-butylazo-4-cyano-2,6-dimethylheptane], the “temperature at which it begins” value [1] was 70 °C, the “hardness of cured resin” value [2] was “very hard” and the peak exotherm [2, 11] was 371 ° F. For the same compound, the “time to peak exotherm” value [2, 11] was 2.8 min.

With CC(C)CC(C)(N=NC(C)(C)C)OC#N (centres unmarked) [LIII, 2-t-Butylazo-2-cyanato-4-methylpentane] the “Barcol Hardness” value ([2]; bath 115° C.) was 45, the “Minutes to Peak Exotherm” value ([2]; bath 115° C.) was 3.8 min and the “peak exotherm” value ([2]; bath 115° C.) was 412 ° F.

For CC(C)CC(C)(N=NC(C)(C)C)NNC(C)(C)C (centres unmarked) [LXIX, 2-t-Butylazo-2-t-butylhydrazo-4-methylpentane], the “gas/nitrogen evolution or decomposition” value [1] was “evolves nitrogen at room temperature”, the “Barcol Hardness” value ([2]; bath 82° C.) was 40 and the “Minutes to Peak Exotherm” value ([2]; bath 82° C.) was 1.4 min. For the same compound, the “peak exotherm” value ([2]; bath 82° C.) was 275 ° F.

For CC1CC(C)(C)CC(C#N)(N=NC(C)(C)C)C1 (centres unmarked) [Example VIII, 1-tert.-butylazo-1-cyano-3,3,5-trimethylcyclohexane], the “temperature at which it begins” value [1] was 100 °C, the “hardness of cured resin” value [2] was “very hard” and the peak exotherm [2, 11] was 384 ° F. For the same compound, the “time to peak exotherm” value [2, 11] was 9.4 min.
